Laboratory results reported in ChEMBL document CHEMBL5505949, “Synthesis and clinical application of small-molecule inhibitors of Janus kinase” (Eur J Med Chem, 2023).

Legend:
[1] = target: T1, Tyrosine-protein kinase JAK2 (Homo sapiens, UniProt O60674); test: Inhibition of JAK2 (unknown origin)
[2] = target: T2, Tyrosine-protein kinase JAK3 (Homo sapiens, UniProt P52333); test: Inhibition of JAK3 (unknown origin)
T2 sequence (P52333 whole entry): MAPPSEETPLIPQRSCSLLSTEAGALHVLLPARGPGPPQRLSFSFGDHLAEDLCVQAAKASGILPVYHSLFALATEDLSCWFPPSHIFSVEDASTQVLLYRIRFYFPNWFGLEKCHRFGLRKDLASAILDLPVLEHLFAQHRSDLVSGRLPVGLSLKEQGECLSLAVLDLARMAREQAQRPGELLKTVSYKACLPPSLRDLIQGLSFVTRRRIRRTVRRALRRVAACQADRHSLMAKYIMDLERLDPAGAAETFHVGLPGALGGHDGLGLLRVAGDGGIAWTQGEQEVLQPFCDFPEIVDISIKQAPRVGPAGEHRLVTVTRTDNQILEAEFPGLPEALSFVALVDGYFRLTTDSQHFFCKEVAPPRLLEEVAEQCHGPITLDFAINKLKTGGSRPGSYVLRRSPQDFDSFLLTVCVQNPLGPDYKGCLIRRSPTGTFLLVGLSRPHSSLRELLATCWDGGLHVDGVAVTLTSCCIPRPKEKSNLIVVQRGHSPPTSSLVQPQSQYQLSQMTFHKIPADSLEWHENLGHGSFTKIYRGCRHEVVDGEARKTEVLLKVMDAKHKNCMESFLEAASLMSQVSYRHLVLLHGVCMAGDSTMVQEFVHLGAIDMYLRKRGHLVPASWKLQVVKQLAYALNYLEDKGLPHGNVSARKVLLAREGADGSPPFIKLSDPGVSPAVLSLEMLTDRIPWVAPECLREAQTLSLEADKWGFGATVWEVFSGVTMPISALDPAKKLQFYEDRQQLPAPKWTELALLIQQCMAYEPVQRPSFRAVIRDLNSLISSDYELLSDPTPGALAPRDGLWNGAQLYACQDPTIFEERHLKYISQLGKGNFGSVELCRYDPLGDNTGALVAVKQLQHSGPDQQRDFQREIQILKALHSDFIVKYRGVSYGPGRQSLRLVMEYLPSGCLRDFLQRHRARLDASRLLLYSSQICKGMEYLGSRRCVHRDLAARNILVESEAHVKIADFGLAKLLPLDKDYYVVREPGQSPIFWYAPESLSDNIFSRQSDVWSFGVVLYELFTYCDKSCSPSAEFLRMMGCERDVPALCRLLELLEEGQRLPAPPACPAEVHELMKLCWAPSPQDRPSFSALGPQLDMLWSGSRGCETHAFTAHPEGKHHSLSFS

[3] = target: Tyrosine-protein kinase JAK2 (Homo sapiens, UniProt O60674, V617F); test: Inhibition of JAK2 V617F mutant (unknown origin)
[4] = target: T1, Tyrosine-protein kinase JAK2; test: Inhibition of wild type JAK2 (unknown origin)

T1 sequence (O60674 whole entry): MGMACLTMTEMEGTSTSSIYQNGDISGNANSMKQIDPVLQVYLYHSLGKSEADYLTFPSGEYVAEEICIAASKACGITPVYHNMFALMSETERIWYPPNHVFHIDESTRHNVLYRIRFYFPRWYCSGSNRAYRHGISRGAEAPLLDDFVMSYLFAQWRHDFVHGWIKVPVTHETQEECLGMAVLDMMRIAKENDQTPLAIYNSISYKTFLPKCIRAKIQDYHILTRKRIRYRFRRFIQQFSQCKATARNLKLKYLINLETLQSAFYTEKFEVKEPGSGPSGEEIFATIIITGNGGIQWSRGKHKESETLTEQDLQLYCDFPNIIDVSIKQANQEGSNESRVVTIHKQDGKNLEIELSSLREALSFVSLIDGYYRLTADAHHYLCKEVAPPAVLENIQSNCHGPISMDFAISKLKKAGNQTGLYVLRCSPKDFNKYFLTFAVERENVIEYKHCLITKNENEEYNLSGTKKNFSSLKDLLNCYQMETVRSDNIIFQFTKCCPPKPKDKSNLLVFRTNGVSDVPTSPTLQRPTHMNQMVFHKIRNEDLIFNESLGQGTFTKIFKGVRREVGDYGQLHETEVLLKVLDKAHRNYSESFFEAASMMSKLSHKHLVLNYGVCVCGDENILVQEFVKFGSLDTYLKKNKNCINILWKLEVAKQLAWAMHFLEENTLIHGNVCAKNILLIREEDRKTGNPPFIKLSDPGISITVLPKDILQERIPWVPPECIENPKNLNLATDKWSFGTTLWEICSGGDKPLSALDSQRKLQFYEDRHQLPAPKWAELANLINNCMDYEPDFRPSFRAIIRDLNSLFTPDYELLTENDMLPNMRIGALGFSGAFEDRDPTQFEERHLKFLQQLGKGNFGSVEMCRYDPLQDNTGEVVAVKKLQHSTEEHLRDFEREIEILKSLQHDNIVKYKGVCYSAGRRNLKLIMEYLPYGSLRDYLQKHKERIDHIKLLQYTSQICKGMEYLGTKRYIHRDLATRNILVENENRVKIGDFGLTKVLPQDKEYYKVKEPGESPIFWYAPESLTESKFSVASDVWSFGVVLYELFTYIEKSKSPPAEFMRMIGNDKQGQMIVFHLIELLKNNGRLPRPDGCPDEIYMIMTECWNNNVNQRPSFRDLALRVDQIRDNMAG
Sequence of Tyrosine-protein kinase JAK2 (Homo sapiens, UniProt O60674, V617F) (O60674 whole entry V617F): as the sequence (O60674 whole entry) above, with V617F counted along it

Row | IC50 [2] [µM] | SMILES | IC50 [1] [µM] | IC50 [3] [µM] | IC50 [4] [µM]
1 | 30 | COc1nn(C)cc1Nc1nccc(-c2c[nH]c3c(NC(=O)[C@@H](C)N4CCN(C)CC4)cccc23)n1 [GOLIDOCITINIB] | 14.7 |  | 
2 |  | Cc1cc(Nc2cc(CN3CCOCC3)c3nc(C)c(Cc4ccc(Cl)cc4F)n3n2)n[nH]1 [GANDOTINIB] | 0.068 | 0.055 | 2.26
